Results taken from patent US20140295547A1, “METHOD TO CONSTRUCT IN-VITRO HUMAN BLOOD BRAIN BARRIER MODEL” (National Chung Cheng University, priority 2013, published 2014).

Tested on: in-vitro human BBB model (HBMECs co-cultured with HBVPs and HAs)
Test: Permeability of propidium iodide across the in-vitro human BBB model
Format: in vitro ADME
From the text: The present invention uses HBMECs and different ratios of HBVPs and HAs to construct a BBB model and measures TEER and permeability of propidium iodide (PI) to evaluate the integrity and performance of the BBB model. The present invention also uses a fluorescent dye Calcein to detect the activity of P-gp. The present invention also detects the concentrations of the transforming growth factor-β1 (TGF-β1), the matrix. metalloproteinases (MMP-9), and the vascular endothelial growth factor (VEGF), which influence the integrity of the BBB model.
Refer to FIG. 1 and FIG. 2. […] In Step S10, defrost a plurality of small tubes of frozen cell-containing liquids via placing them in water having a temperature of 37° C. for 1 minute until all the frozen cell-containing liquids completely liquefy and become the suspension liquids of HBVPs, HAs and HBMECs. In Step S12, respectively suck the suspension liquids of HBVPs, HAs and HBMECs from the small tubes, respectively place the suspension liquids in pretreated culture plates, and culture the suspension liquids in a carbon-dioxide incubator having a temperature of 37° C. and a relative humidity of 95%. In Step S14, provide a pretreated culture dish 10 having a filter membrane 12 made of PET (polyethylene terephthalate); flip over the filter membrane 12; attach the suspension liquids of HBVPs and HAs by a ratio of 1:1, 1:2, or 1:6 to the bottom surface of the filter membrane 12 of the culture dish 10 to plant HBVPs 14 and HAs 16 on the bottom surface, wherein the time for attaching is 1 hour and the total planting density of HBVPs 14 and HAs 16 is 4×10^5 cells/cm^2. In Step S16, fill the suspension liquid of HBMECs into the top surface of the filter membrane 12 to plant HBMECs 18 on the top surface, wherein the planting density of HBMECs 18 is 4×10^5 cell/cm^2. […]

CC[N+](C)(CC)CCC[n+]1c(-c2ccccc2)c2cc(N)ccc2c2ccc(N)cc21.[I-].[I-] [propidium iodide]
PI permeability in comparison with the BBB model with HBVPs:HAs=1:2 (BBB model with HBVPs:HAs=1:1): higher | PI permeability in comparison with the BBB model with HBVPs:HAs=1:2 (BBB model with HBVPs:HAs=1:6): higher | permeability of propidium iodide relative to that of a single layer of the cultured HBMECs (HBMECs co-cultured with HBVPs:HAs=1:2, condition medium PCM:ACM 1:1 for 7 days): 39%
